According to ChEMBL document CHEMBL3046822, “Synthesis, antiplatelet aggregation activity, and molecular modeling study of novel substituted-piperazine analogues” (2011):
Activity calls are given as the source filed them. No cut-off for these calls is given here.

Tests used:
Platelet [1] = experiment: Antiaggregating activity in Homo sapiens (human) platelet rich plasma assessed as inhibition of adrenaline-induced platelet aggregation at 1 uM incubated for 4 min prior to adrenaline-induction measured for 5.5 min by turbidometric analysis; assay type: functional, cell-free
Platelet [2] = experiment: Antiaggregating activity in Homo sapiens (human) platelet rich plasma assessed as inhibition of collagen-induced platelet aggregation at 0.5 uM incubated for 4 min prior to collagen-induction measured for 5.5 min by turbidometric analysis; assay type: functional, cell-free
[3] = Antiaggregating activity in Homo sapiens (human) platelet rich plasma assessed as ristocetin-induced platelet aggregation at 0.5 uM incubated for 4 min prior to ristocetin-induction measured for 5.5 min by turbidometric analysis (reference value: 65 to 99%); assay type: functional
Platelet [4] = experiment: Antiaggregating activity in Homo sapiens (human) platelet rich plasma assessed as inhibition of ADP-induced platelet aggregation at 1 uM incubated for 4 min prior to ADP-induction measured for 5.5 min by turbidometric analysis; assay type: functional, cell-free
Platelet [5] = experiment: Antiaggregating activity in Homo sapiens (human) platelet rich plasma assessed as inhibition of collagen-induced platelet aggregation at 0.4 uM incubated for 4 min prior to collagen-induction measured for 5.5 min by turbidometric analysis; assay type: functional, cell-free
Platelet [6] = experiment: Antiaggregating activity in Homo sapiens (human) platelet rich plasma assessed as inhibition of adrenaline-induced platelet aggregation at 0.5 uM incubated for 4 min prior to adrenaline-induction measured for 5.5 min by turbidometric analysis; assay type: functional, cell-free
Platelet [7] = experiment: Antiaggregating activity in Homo sapiens (human) platelet rich plasma assessed as inhibition of adrenaline-induced platelet aggregation at 0.4 uM incubated for 4 min prior to adrenaline-induction measured for 5.5 min by turbidometric analysis; assay type: functional, cell-free
Platelet [8] = experiment: Antiaggregating activity in Homo sapiens (human) platelet rich plasma assessed as inhibition of collagen-induced platelet aggregation at 1 uM incubated for 4 min prior to collagen-induction measured for 5.5 min by turbidometric analysis; assay type: functional, cell-free
Platelet [9] = experiment: Antiaggregating activity in Homo sapiens (human) platelet rich plasma assessed as inhibition of ADP-induced platelet aggregation at 0.4 uM incubated for 4 min prior to ADP-induction measured for 5.5 min by turbidometric analysis; assay type: functional, cell-free
Platelet [10] = experiment: Antiaggregating activity in Homo sapiens (human) platelet rich plasma assessed as inhibition of arachidonic acid-induced platelet aggregation at 1 uM incubated for 4 min prior to arachidonic acid-induction measured for 5.5 min by turbidometric analysis; assay type: functional, cell-free
Platelet [11] = experiment: Antiaggregating activity in Homo sapiens (human) platelet rich plasma assessed as inhibition of arachidonic acid-induced platelet aggregation at 0.5 uM incubated for 4 min prior to arachidonic acid-induction measured for 5.5 min by turbidometric analysis; assay type: functional
[12] = Antiaggregating activity in Homo sapiens (human) platelet rich plasma assessed as ristocetin-induced platelet aggregation at 0.4 uM incubated for 4 min prior to ristocetin-induction measured for 5.5 min by turbidometric analysis (reference value: 65 to 99%); assay type: functional
Platelet [13] = experiment: Antiaggregating activity in Homo sapiens (human) platelet rich plasma assessed as inhibition of arachidonic acid-induced platelet aggregation at 0.4 uM incubated for 4 min prior to arachidonic acid-induction measured for 5.5 min by turbidometric analysis; assay type: functional, cell-free
Platelet [14] = experiment: Antiaggregating activity in Homo sapiens (human) platelet rich plasma assessed as inhibition of ADP-induced platelet aggregation at 0.5 uM incubated for 4 min prior to ADP-induction measured for 5.5 min by turbidometric analysis; assay type: functional, cell-free
[15] = Antiaggregating activity in human platelet rich plasma assessed as disaggregation of ristocetin-induced platelet aggregation at 1 uM incubated for 4 min prior to ristocetin-induction measured for 5.5 min by turbidometric analysis relative to control; assay type: functional
Platelet [16] = experiment: Antiaggregating activity in Homo sapiens (human) platelet rich plasma assessed as inhibition of adrenaline-induced platelet aggregation at 3 uM incubated for 4 min prior to adrenaline-induction measured for 5.5 min by turbidometric analysis; assay type: functional, cell-free
[17] = Antiaggregating activity in Homo sapiens (human) platelet rich plasma assessed as ristocetin-induced platelet aggregation at 0.6 uM incubated for 4 min prior to ristocetin-induction measured for 5.5 min by turbidometric analysis (reference value: 65 to 99%); assay type: functional
Platelet [18] = experiment: Antiaggregating activity in Homo sapiens (human) platelet rich plasma assessed as inhibition of adrenaline-induced platelet aggregation at 0.6 uM incubated for 4 min prior to adrenaline-induction measured for 5.5 min by turbidometric analysis; assay type: functional, cell-free
[19] = Antiaggregating activity in Homo sapiens (human) platelet rich plasma assessed as ADP-induced platelet aggregation at 1 uM incubated for 4 min prior to ADP-induction measured for 5.5 min by turbidometric analysis (reference value: 54 to 88%); assay type: functional
[20] = Antiaggregating activity in Homo sapiens (human) platelet rich plasma assessed as collagen-induced platelet aggregation at 1 uM incubated for 4 min prior to collagen-induction measured for 5.5 min by turbidometric analysis (reference value: 50 to 98%); assay type: functional
[21] = Antiaggregating activity in Homo sapiens (human) platelet rich plasma assessed as collagen-induced platelet aggregation at 0.6 uM incubated for 4 min prior to collagen-induction measured for 5.5 min by turbidometric analysis (reference value: 50 to 98%); assay type: functional
[22] = Antiaggregating activity in Homo sapiens (human) platelet rich plasma assessed as disaggregation of arachidonic acid-induced platelet aggregation at 0.06 uM incubated for 4 min prior to arachidonic acid-induction measured for 5.5 min by turbidometric analysis relative to control; assay type: functional
[23] = Antiaggregating activity in Homo sapiens (human) platelet rich plasma assessed as ADP-induced platelet aggregation at 0.6 uM incubated for 4 min prior to ADP-induction measured for 5.5 min by turbidometric analysis (reference value: 54 to 88%); assay type: functional
Platelet [24] = experiment: Antiaggregating activity in Homo sapiens (human) platelet rich plasma assessed as inhibition of ADP-induced platelet aggregation at 3 uM incubated for 4 min prior to ADP-induction measured for 5.5 min by turbidometric analysis; assay type: functional, cell-free
[25] = Antiaggregating activity in Homo sapiens (human) platelet rich plasma assessed as ristocetin-induced platelet aggregation at 1 uM incubated for 4 min prior to ristocetin-induction measured for 5.5 min by turbidometric analysis (reference value: 65 to 99%); assay type: functional
Platelet [26] = experiment: Antiaggregating activity in Homo sapiens (human) platelet rich plasma assessed as inhibition of arachidonic acid-induced platelet aggregation at 3 uM incubated for 4 min prior to arachidonic acid-induction measured for 5.5 min by turbidometric analysis; assay type: functional, cell-free
Platelet [27] = experiment: Antiaggregating activity in Homo sapiens (human) platelet rich plasma assessed as inhibition of collagen-induced platelet aggregation at 3 uM incubated for 4 min prior to collagen-induction measured for 5.5 min by turbidometric analysis; assay type: functional, cell-free
Platelet [28] = experiment: Antiaggregating activity in Homo sapiens (human) platelet rich plasma assessed as inhibition of ristocetin-induced platelet aggregation at 3 uM incubated for 4 min prior to ristocetin-induction measured for 5.5 min by turbidometric analysis; assay type: functional, cell-free

**Q.** Which inhibition (Platelet [1]) does the source give for `Cl.O=C(c1cccnc1)N1CCN(c2ccccc2Cl)CC1` here?
**A.** The inhibition was “Active”.

**Q.** And the inhibition (Platelet [2])?
**A.** The inhibition was “Active”.

**Q.** And the Activity [3]?
**A.** The Activity was 71%.

**Q.** And the inhibition (Platelet [4])?
**A.** The inhibition was “Active”.

**Q.** And the inhibition (Platelet [5])?
**A.** Its inhibition is “Active”.

**Q.** What about the inhibition (Platelet [6]) of the same compound?
**A.** The inhibition was “Active”.

**Q.** What about the inhibition (Platelet [7]) of the same compound?
**A.** Its inhibition is “Active”.

**Q.** What about the inhibition (Platelet [8]) of the same compound?
**A.** The inhibition was “Active”.

**Q.** And the inhibition (Platelet [9])?
**A.** Its inhibition is “Active”.

**Q.** And the inhibition (Platelet [10])?
**A.** The inhibition was “Active”.

**Q.** And the inhibition (Platelet [11])?
**A.** The inhibition was “Active”.

**Q.** What about the Activity [12] of the same compound?
**A.** The Activity was 77%.

**Q.** What about the inhibition (Platelet [13]) of the same compound?
**A.** The inhibition was “Active”.

**Q.** What about the inhibition (Platelet [14]) of the same compound?
**A.** Its inhibition is “Active”.

**Q.** And the Activity [15]?
**A.** Its Activity is 23%.

**Q.** For `Cl.O=C(c1cccnc1)N1CCN(c2ncccn2)CC1`, which inhibition (Platelet [1]) is on record?
**A.** The inhibition was “Active”.

**Q.** What about the inhibition (Platelet [16]) of the same compound?
**A.** Its inhibition is “Active”.

**Q.** And the Activity [17]?
**A.** The Activity was 76%.

**Q.** What about the inhibition (Platelet [18]) of the same compound?
**A.** Its inhibition is “Active”.

**Q.** And the Activity [19]?
**A.** The Activity was 13%.

**Q.** What about the Activity [20] of the same compound?
**A.** Its Activity is 72%.

**Q.** What about the Activity [21] of the same compound?
**A.** The Activity was 58%.

**Q.** What about the Activity [22] of the same compound?
**A.** The Activity was 20%.

**Q.** And the inhibition (Platelet [10])?
**A.** Its inhibition is “Active”.

**Q.** And the Activity [23]?
**A.** The Activity was 40%.

**Q.** What about the inhibition (Platelet [24]) of the same compound?
**A.** Its inhibition is “Active”.

**Q.** What about the Activity [25] of the same compound?
**A.** The Activity was 74%.

**Q.** And the inhibition (Platelet [26])?
**A.** The inhibition was “Active”.

**Q.** And the inhibition (Platelet [27])?
**A.** The inhibition was “Active”.

**Q.** And the inhibition (Platelet [28])?
**A.** The inhibition was “Active”.
